≈ marks a conversion by molar mass, not a printed value. Read-outs that look alike come from different tables or passages of the source.
Experiments:
L145 C. albicans = assay: MIC, broth microdilution (CLSI); assay type: cell-based, Candida albicans
Protocol: (§1) Antimicrobial activity of the antibiotic FIIRV 104/18 complex is determined by the broth microdilution method according to the procedures published by the Clinical and Laboratory Standards Institute (CLSI), formerly the National Committee for Clinical Laboratory Standards (NCCLS) (document M07-A9). Inocula are: 2-5×10^5 CFU/mL for Gram positive and Gram negative bacteria; 10^4 CFU/mL for Candida albicans.
(§2) The media used are: cation adjusted Mueller Hinton broth (CAMHB) for Staphylococci, Enterococci, Moraxella catarrhalis, Escherichia coli; Todd Hewitt broth (THB) for Streptococci; RPMI 1640 Medium for C. albicans. The effect of 30% bovine serum is determined under the same experimental conditions.
(§3) Cultures are incubated at 35° C. in air. After 18-24 hours visual readings are performed and MICs determined. The MIC (Minimal Inhibitory Concentration) is defined as the lower concentration of antibiotic at which there is no visible growth. The strains used are clinical isolates or strains from American Type Culture Collection (ATCC). Individual factors of antibiotic FIIRV 104/18 are dissolved in DMSO to obtain a 1000 μg/mL stock solution, and subsequently diluted in water to obtain working solution.

[1] = tested on: Gram-positive susceptible, resistant and multi-resistant pathogenic bacteria; assay: Growth inhibition of Gram-positive bacteria (summary); assay type: cell-based; conditions: Gram positive bacteria: Staphylococci incl. MRSA and MR coagulase-negative, Streptococci, Enterococci incl. VanA
Protocol: as §1, §2, §3

L2048 B. cenocepacia = assay: MIC, broth microdilution (CLSI); assay type: cell-based; conditions: Burkholderia cenocepacia
Protocol: as §1, §2, §3

L49 S. pyogenes C203 = assay: MIC, broth microdilution (CLSI); assay type: cell-based; conditions: Streptococcus pyogenes
Protocol: (§4) Inocula are: 2-5×10^5 CFU/mL for Gram positive and Gram negative bacteria; 10^4 CFU/mL for Candida albicans.
(§5) The effect of 30% bovine serum is determined under the same experimental conditions.
(§6) Cultures are incubated at 35° C. in air. After 18-24 hours visual readings are performed and MICs determined. The MIC (Minimal Inhibitory Concentration) is defined as the lower concentration of antibiotic at which there is no visible growth. The strains used are clinical isolates or strains from American Type Culture Collection (ATCC).

L47 E. coli, SKF 12140 = assay: MIC, broth microdilution (CLSI); assay type: cell-based; conditions: Escherichia coli
Protocol: as §4, §5, §6

L3030 A. baumannii = assay: MIC, broth microdilution (CLSI); assay type: cell-based; conditions: Acinetobacter baumannii
Protocol: as §4, §5, §6

L559 E. faecalis = assay: MIC, broth microdilution (CLSI); assay type: cell-based; conditions: Enterococcus faecalis
Protocol: as §4, §5, §6

L1730 S. haemolyticus = assay: MIC, broth microdilution (CLSI); assay type: cell-based; conditions: Staphylococcus haemolyticus
Protocol: as §4, §5, §6

L1400 S. aureus MRSA = assay: MIC, broth microdilution (CLSI); assay type: cell-based; conditions: Staphylococcus aureus
Protocol: as §4, §5, §6

L100 S. aureus ATCC 6538 = assay: MIC, broth microdilution (CLSI); assay type: cell-based; conditions: Staphylococcus aureus, ATCC6538
Protocol: as §4, §5, §6

L568 E. faecium = assay: MIC, broth microdilution (CLSI); assay type: cell-based; conditions: Enterococcus faecium
Protocol: as §4, §5, §6

L1577 S. epidermidis = assay: MIC, broth microdilution (CLSI); assay type: cell-based; conditions: Staphylococcus epidermidis
Protocol: as §4, §5, §6

L3294 M. catarrhalis = assay: MIC, broth microdilution (CLSI); assay type: cell-based; conditions: Moraxella catarrhalis
Protocol: as §4, §5, §6

L44 S. pneumoniae = assay: MIC, broth microdilution (CLSI); assay type: cell-based; conditions: Streptococcus pneumoniae
Protocol: as §4, §5, §6

[2] = tested on: L1729 S. haemolyticus MDR; assay: MIC, broth microdilution (CLSI); assay type: cell-based; conditions: Staphylococcus haemolyticus
Protocol: as §4, §5, §6

L560 E. faecalis VanA = assay: MIC, broth microdilution (CLSI); assay type: cell-based, Enterococcus faecalis; conditions: Enterococcus faecalis, L560 E. faecalis VanA
Protocol: as §4, §5, §6

L569 E. faecium VanA = assay: MIC, broth microdilution (CLSI); assay type: cell-based, Enterococcus faecium; conditions: Enterococcus faecium, L569 E. faecium VanA
Protocol: as §4, §5, §6

[3] = tested on: L819 S. aureus Smith ATCC19636; assay: MIC, broth microdilution (CLSI); assay type: cell-based, Staphylococcus aureus; conditions: Staphylococcus aureus
Protocol: as §4, §5, §6

[4] = +30% SB (bovine serum), read-out: MIC

Q: With `C[C@@H]1[C@H](O)[C@@H](C)/C=C/C=C/C=C/C=C/C=C/C=C/C=C/[C@H](O[C@@H]2O[C@H](C)[C@@H](O)[C@H](N)[C@@H]2O)C[C@@H]2O[C@](O)(C[C@@H](O)C[C@@H](O)[C@H](O)CC[C@@H](O)C[C@@H](O)CC(=O)O[C@H]1C)C[C@H](O)[C@H]2C(=O)O` [AmB, Amphotericin B, reference compound] as the molecule, how does the MIC (L145 C. albicans; L145 C. albicans, RPMI, inoculum 10^4 CFU/mL) read?
A: Its MIC is 1 µg/mL (≈ 1.08 µM).

Q: For `COC(=O)c1c(C)cc2c(c1O)[C@]1(O)C(=O)c3cc4c(c(O)c3C(=O)[C@]1(OC)[C@H](O)C2)C(=O)C=C(NC1O[C@@H](C)[C@H](OC2C[C@H](O)[C@H](O)C(C)O2)[C@@H](O)[C@H]1OC)C4=O` (stereo partly drawn) [F813, (6R,6aS,14aR)-methyl 11-[(2S,3R,4R,5R,6S)-5-{[(2R,5S,6S)-4,5-dihydroxy-6-methyltetrahydro-2H-pyran-2-yl]oxy}-4-hydroxy-3-methoxy-6-methyltetrahydro-2H-pyran-2-ylamino]-1,6,8,14a-tetrahydroxy-6a-methoxy-3-methyl-7,9,12,14-tetraoxo-5,6,6a,7,9,12,14,14a-octahydrobenzo[α]tetracene-2-carboxylate], which “antibacterial activity (in words)” value [1] is on record?
A: Its value is “very high antibacterial activity”.

Q: What about the MIC (L2048 B. cenocepacia; L2048 B. cenocepacia, read-out: MIC) of the same molecule?
A: Its MIC is 64 µg/mL (≈ 78.6 µM).

Q: What about the MIC (L49 S. pyogenes C203; L49 S. pyogenes C203, THB, read-out: MIC) of the same molecule?
A: Its MIC is 0 to 125 µg/mL.

Q: And the MIC (L47 E. coli, SKF 12140; L47 E. coli, SKF 12140, CAMHB, read-out: MIC)?
A: Its MIC is 128 µg/mL (≈ 157 µM).

Q: What about the MIC (L3030 A. baumannii; L3030 A. baumannii, read-out: MIC) of the same molecule?
A: Its MIC is 128 µg/mL (≈ 157 µM).

Q: What about the MIC (L559 E. faecalis; L559 E. faecalis, CAMHB, read-out: MIC) of the same molecule?
A: The MIC was 4 µg/mL (≈ 4.92 µM).

Q: And the MIC (L1730 S. haemolyticus; L1730 S. haemolyticus, CAMHB, read-out: MIC)?
A: Its MIC is 0.5 µg/mL (≈ 0.614 µM).

Q: What about the MIC (L1400 S. aureus MRSA; L1400 S. aureus MRSA, CAMHB, read-out: MIC) of the same molecule?
A: The MIC was 0.5 µg/mL (≈ 0.614 µM).

Q: And the MIC (L100 S. aureus ATCC 6538; L100 S. aureus ATCC 6538, CAMHB, read-out: MIC)?
A: Its MIC is 0.125 µg/mL (≈ 0.154 µM).

Q: And the MIC (L568 E. faecium; L568 E. faecium, CAMHB, read-out: MIC)?
A: The MIC was 4 µg/mL (≈ 4.92 µM).

Q: What about the MIC (L1577 S. epidermidis; L1577 S. epidermidis, CAMHB, read-out: MIC) of the same molecule?
A: The MIC was 0.5 µg/mL (≈ 0.614 µM).

Q: And the MIC (L3294 M. catarrhalis; L3294 M. catarrhalis, CAMHB, read-out: MIC)?
A: The MIC was 0.5 µg/mL (≈ 0.614 µM).

Q: What about the MIC (L44 S. pneumoniae; L44 S. pneumoniae, THB, read-out: MIC) of the same molecule?
A: Its MIC is 0.125 µg/mL (≈ 0.154 µM).

Q: What about the MIC ([2]; L1729 S. haemolyticus MDR, CAMHB, read-out: MIC) of the same molecule?
A: The MIC was 0.5 µg/mL (≈ 0.614 µM).

Q: And the MIC (L560 E. faecalis VanA; [4])?
A: Its MIC is 16 µg/mL (≈ 19.7 µM).

Q: What about the MIC (L560 E. faecalis VanA; CAMHB, read-out: MIC) of the same molecule?
A: Its MIC is 4 µg/mL (≈ 4.92 µM).

Q: What about the MIC (L145 C. albicans; Candida albicans, L145 C. albicans, RPMI, inoculum 10^4 CFU/mL, read-out: MIC) of the same molecule?
A: The MIC was > 128 µg/mL.

Q: What about the MIC (L569 E. faecium VanA; [4]) of the same molecule?
A: The MIC was 16 µg/mL (≈ 19.7 µM).

Q: What about the MIC (L569 E. faecium VanA; CAMHB, read-out: MIC) of the same molecule?
A: The MIC was 4 µg/mL (≈ 4.92 µM).

Q: What about the MIC ([3]; ATCC19636, L819 S. aureus Smith ATCC19636, CAMHB, read-out: MIC) of the same molecule?
A: The MIC was 0.125 µg/mL (≈ 0.154 µM).

Q: And the MIC ([3]; ATCC19636, L819 S. aureus Smith, +30% SB (bovine serum), read-out: MIC)?
A: The MIC was 1 µg/mL (≈ 1.23 µM).

Q: What does the source list for `COC(=O)c1c(C)cc2c(c1O)C1(O)C(=O)c3cc4c(c(O)c3C(=O)C1(OC)[C@H](O)C2)C(=O)C=C(NC1O[C@@H](C)[C@H](OC2C=CC(=O)C(C)O2)[C@@H](O)[C@H]1OC)C4=O` (stereo partly drawn) [F793, (6R,6aS,14aR)-methyl 11-[(2S,3R,4R,5R,6S)-4-hydroxy-3-methoxy-6-methyl-5-{[(2S,6S)-6-methyl-5-oxo-5,6-dihydro-2H-pyran-2-yl]oxy}tetrahydro-2H-pyran-2-ylamino]-1,6,8,14a-tetrahydroxy-6a-methoxy-3-methyl-7,9,12,14-tetraoxo-5,6,6a,7,9,12,14,14a-octahydrobenzo[α]tetracene-2-carboxylate]?
A: antibacterial activity (in words) [1]: very high antibacterial activity; MIC (L2048 B. cenocepacia): 128 µg/mL (≈ 161 µM); MIC (L49 S. pyogenes C203): 0.03 µg/mL (≈ 0.0378 µM); MIC (L47 E. coli, SKF 12140): > 128 µg/mL; MIC (L3030 A. baumannii): 128 µg/mL (≈ 161 µM); MIC (L559 E. faecalis): 0.5 µg/mL (≈ 0.63 µM); MIC (L1730 S. haemolyticus): 1 µg/mL (≈ 1.26 µM); MIC (L1400 S. aureus MRSA; MRSA): 0.5 µg/mL (≈ 0.63 µM); MIC (L100 S. aureus ATCC 6538): 1 µg/mL (≈ 1.26 µM); MIC (L568 E. faecium): 1 µg/mL (≈ 1.26 µM); MIC (L1577 S. epidermidis): 0.25 µg/mL (≈ 0.315 µM); MIC (L3294 M. catarrhalis): 1 µg/mL (≈ 1.26 µM); MIC (L44 S. pneumoniae): 0.06 µg/mL (≈ 0.0756 µM); MIC [2]: 1 µg/mL (≈ 1.26 µM); MIC (L560 E. faecalis VanA; +30% SB (bovine serum)): 2 µg/mL (≈ 2.52 µM); MIC (L560 E. faecalis VanA; CAMHB): 0.5 µg/mL (≈ 0.63 µM); MIC (L145 C. albicans; Candida albicans): > 128 µg/mL; MIC (L569 E. faecium VanA; +30% SB (bovine serum)): 16 µg/mL (≈ 20.2 µM); MIC (L569 E. faecium VanA; CAMHB): 1 µg/mL (≈ 1.26 µM); MIC ([3]; ATCC19636, L819 S. aureus Smith ATCC19636, CAMHB): 0.5 µg/mL (≈ 0.63 µM); MIC ([3]; ATCC19636, L819 S. aureus Smith, +30% SB (bovine serum)): 4 µg/mL (≈ 5.04 µM)
